“Also recorded” adds a separate entry of the source. Read-outs that look alike come from different tables or passages of the source.
Tests used:
T4 DNA ligase = target: T1, T4 DNA ligase (Enterobacteria phage T4, UniProt P00970); experiment: High-throughput fluorescence-based DNA joining assay, non-specific inhibitor control; assay type: biochemical, bacteriophage T4; conditions: for inhibition of T4 DNA ligase, in words: in vitro screen, 100 μmol/L
T1 construct: purchased NEB
T1 sequence (P00970 1-487): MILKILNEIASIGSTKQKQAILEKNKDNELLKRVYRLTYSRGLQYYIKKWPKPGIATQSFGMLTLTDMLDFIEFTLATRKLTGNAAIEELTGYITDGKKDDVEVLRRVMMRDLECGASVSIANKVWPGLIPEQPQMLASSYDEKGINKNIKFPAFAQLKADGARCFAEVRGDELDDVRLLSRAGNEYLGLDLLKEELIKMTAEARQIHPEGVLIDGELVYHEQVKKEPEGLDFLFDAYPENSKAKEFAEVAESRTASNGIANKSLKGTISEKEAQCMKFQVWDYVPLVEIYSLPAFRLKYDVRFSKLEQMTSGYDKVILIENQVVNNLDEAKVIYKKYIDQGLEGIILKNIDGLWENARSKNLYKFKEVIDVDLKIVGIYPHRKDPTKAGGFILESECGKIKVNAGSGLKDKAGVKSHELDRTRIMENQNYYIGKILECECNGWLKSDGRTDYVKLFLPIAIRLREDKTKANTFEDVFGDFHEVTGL
In short: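 This counter-screen used a FRET-based DNA joining assay. Duplicate reactions held 10 pmol nicked DNA substrate and 10 units T4 DNA ligase, with or without 100 μmol/L compound. T4 ligase lacks the DNA-binding domain targeted in silico, so compounds inhibiting it were flagged as non-specific, likely DNA-binding.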

hLigI = target: T2, hLigI (Homo sapiens, UniProt P18858); experiment: High-throughput fluorescence-based DNA joining (ligation) assay; assay type: biochemical; conditions: for inhibition of hLigI (DNA ligase I), in words: in vitro screen, 100 μmol/L, the 15 hLigI inhibitors inhibited by >50%
T2 construct: made in house
In short: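 Nicked DNA substrate (10 pmol) was incubated with 0.25 pmol hLigI, with or without 100 μmol/L test compound, in duplicate. Afterwards the DNA was denatured and renatured with a 20-fold excess of unmodified oligonucleotide. Ligation forms an AF488/BHQ1 hairpin, read as reduced fluorescence at 518 nm.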

human DNA ligase IV = human DNA ligase IV (Homo sapiens, UniProt P49917); experiment: as above; assay type: biochemical; conditions: for inhibition of human DNA ligase IV, in words: in vitro screen
In short: (§1)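 Ligation joins an AF488-labelled and a BHQ1-labelled oligonucleotide. After denaturation and renaturation with a 20-fold excess of unlabelled competitor strand, the product forms a quenched hairpin, so joining is read as loss of 518 nm fluorescence. Ligase III used a nicked duplex; ligase IV used two duplexes with short complementary single-strand ends.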

human DNA ligase III = target: T3, human DNA ligase III (Homo sapiens, UniProt P49916); experiment: as above; assay type: biochemical; conditions: for inhibition of human DNA ligase III, in words: in vitro screen
T3 sequence (P49916 1-862 isoform P49916-4): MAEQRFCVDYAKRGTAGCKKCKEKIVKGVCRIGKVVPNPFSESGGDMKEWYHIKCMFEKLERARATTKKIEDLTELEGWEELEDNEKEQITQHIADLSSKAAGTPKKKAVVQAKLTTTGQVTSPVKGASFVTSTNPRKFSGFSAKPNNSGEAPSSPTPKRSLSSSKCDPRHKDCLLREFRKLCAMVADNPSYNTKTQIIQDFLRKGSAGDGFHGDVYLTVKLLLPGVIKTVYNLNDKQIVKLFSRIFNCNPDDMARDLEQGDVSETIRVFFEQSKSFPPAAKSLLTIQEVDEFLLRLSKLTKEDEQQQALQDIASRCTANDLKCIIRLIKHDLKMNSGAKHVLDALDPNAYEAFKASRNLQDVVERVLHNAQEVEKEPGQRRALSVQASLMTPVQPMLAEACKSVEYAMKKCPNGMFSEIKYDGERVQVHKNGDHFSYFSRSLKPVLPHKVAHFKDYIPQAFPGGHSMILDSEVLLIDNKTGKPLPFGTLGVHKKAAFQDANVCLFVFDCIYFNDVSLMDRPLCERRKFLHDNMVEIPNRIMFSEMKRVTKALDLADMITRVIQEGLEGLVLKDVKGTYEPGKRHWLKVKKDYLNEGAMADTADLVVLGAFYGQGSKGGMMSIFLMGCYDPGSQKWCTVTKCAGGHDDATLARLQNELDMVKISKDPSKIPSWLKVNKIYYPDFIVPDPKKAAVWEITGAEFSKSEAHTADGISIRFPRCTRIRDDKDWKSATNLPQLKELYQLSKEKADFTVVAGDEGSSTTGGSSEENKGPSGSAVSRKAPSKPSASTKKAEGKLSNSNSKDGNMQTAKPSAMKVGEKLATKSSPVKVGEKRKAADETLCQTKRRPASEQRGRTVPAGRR
In short: as §1

[1] = 100 μM, read-out: In vitro % inhib T4 100
[2] = read-out: % activity Inhibition LigT4 100 uM
[3] = 100 uM, read-out: % activity Inhibition hLigI 100 uM
[4] = 100 μM, read-out: In vitro % inhib hLigI 100
[5] = 100 μM, read-out: In vitro % inhib hLigIV 100
[6] = 100 uM, Ø not defined (0 in Table 5A)
[7] = 100 μM, read-out: In vitro % inhib hLigIII 100
[8] = 100 μM, read-out: % of inhibition @ 100 μM (Helen's data) hLigI
[9] = 100 μM, read-out: % of inhibition @ 100 μM (Helen's data) hLigIV
[10] = 100 uM, Ø not defined (0 in Table 5A), read-out: % activity Inhibition hLigIV 100 uM
[11] = 100 uM, Ø not defined (0 in Table 5A), read-out: % activity Inhibition hLigIII 100 uM
[12] = read-out: % of inhibition @ 100 μM (Helen's data) hLigIII

Chain of human DNA ligase IV (P49917 whole entry): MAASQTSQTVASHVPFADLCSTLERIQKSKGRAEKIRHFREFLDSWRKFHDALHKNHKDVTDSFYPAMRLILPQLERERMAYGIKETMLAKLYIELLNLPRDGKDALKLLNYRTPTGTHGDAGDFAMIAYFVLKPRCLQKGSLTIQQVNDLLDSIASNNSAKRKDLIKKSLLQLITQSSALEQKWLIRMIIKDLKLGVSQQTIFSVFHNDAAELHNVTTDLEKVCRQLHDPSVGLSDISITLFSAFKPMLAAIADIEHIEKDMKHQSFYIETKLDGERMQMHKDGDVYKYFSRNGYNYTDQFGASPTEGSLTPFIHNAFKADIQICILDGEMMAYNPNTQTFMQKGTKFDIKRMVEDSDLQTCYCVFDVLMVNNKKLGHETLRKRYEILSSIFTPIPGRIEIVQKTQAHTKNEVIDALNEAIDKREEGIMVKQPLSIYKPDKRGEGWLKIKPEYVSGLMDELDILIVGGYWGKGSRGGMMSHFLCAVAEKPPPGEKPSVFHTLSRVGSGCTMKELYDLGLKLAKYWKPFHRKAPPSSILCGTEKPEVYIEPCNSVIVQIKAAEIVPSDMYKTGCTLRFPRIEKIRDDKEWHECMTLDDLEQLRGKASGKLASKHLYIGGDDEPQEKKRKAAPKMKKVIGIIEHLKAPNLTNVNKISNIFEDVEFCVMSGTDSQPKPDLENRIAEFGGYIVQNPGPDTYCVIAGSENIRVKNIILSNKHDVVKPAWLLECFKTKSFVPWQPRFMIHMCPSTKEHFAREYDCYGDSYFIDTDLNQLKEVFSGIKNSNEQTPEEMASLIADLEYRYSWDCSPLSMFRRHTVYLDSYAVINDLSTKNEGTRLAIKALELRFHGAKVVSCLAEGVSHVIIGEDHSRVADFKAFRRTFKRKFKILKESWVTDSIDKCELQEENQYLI
Chain of human DNA ligase IV (Q13426 whole entry partner): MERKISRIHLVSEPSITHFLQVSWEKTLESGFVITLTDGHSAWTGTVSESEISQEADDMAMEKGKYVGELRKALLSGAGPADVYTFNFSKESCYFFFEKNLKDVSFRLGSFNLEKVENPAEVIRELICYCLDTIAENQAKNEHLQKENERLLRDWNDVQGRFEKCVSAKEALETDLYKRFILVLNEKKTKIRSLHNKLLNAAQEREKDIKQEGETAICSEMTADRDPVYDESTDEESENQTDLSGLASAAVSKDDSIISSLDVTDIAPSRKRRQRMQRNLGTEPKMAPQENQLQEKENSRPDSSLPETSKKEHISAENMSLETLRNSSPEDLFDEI
T2 sequence (P18858 whole entry): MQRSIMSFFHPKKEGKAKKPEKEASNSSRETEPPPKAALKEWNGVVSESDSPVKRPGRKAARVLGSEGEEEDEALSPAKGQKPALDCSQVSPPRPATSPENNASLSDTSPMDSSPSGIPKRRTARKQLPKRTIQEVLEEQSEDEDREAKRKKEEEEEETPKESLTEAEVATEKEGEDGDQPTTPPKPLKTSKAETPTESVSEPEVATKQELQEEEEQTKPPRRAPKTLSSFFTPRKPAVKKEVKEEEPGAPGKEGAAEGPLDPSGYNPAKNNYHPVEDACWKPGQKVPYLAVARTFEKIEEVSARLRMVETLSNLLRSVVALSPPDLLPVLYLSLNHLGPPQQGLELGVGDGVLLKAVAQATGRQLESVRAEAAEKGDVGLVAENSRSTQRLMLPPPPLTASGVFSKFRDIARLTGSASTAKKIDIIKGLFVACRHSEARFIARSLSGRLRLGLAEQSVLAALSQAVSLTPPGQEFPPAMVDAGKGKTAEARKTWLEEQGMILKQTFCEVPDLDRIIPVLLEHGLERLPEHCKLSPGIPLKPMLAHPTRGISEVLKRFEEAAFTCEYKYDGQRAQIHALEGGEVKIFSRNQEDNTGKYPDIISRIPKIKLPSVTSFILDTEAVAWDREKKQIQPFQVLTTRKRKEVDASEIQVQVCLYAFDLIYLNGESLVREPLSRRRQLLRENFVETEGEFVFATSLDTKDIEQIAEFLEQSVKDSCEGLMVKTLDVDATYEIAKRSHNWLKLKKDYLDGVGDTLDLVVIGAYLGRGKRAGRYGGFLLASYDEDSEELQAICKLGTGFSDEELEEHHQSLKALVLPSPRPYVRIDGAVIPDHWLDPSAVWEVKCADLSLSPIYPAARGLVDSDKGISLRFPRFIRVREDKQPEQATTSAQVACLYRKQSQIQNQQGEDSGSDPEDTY

Structure (SMILES)	inhibition at 100 µM (T4 DNA ligase; [1]) [%]	inhibition at 100 µM (T4 DNA ligase; [2]) [%]	inhibition at 100 µM (hLigI; [3]) [%]	inhibition at 100 µM (hLigI; [4]) [%]	inhibition of hLigI (DNA ligase I), in words (hLigI)	inhibition at 100 µM (human DNA ligase IV; [5]) [%]	% activity Inhibition hLigIV 100 uM (human DNA ligase IV; [6])	inhibition at 100 µM (human DNA ligase III; [7]) [%]	% activity Inhibition hLigIII 100 uM (human DNA ligase III; [6])	inhibition at 100 µM (hLigI; [8]) [%]	inhibition at 100 µM (human DNA ligase IV; [9]) [%]	inhibition at 100 µM (human DNA ligase IV; [10]) [%]	inhibition of human DNA ligase IV, in words (human DNA ligase IV)	inhibition at 100 µM (human DNA ligase III; [11]) [%]	inhibition of human DNA ligase III, in words (human DNA ligase III)	inhibition at 100 µM (human DNA ligase III; [12]) [%]	inhibition of T4 DNA ligase, in words (T4 DNA ligase)	also measured
C/C(O)=C1/C(=O)N(c2nc3ccccc3s2)N=C1c1ccccc1 [Compound 43]	0	0	29.2 ± 3.5	29 ± 4	specific for DNA ligase I	0	Ø	0	Ø	–	–	–	–	–	–	–	–	–
O=C(O)CSc1cc(Cl)c2nonc2c1[N+](=O)[O-] [Compound 64]	18 ± 8	18.4 ± 8.4	60.6 ± 0.54	61 ± 1	inhibited hLigI; also recorded: inhibit all three human DNA ligases	52 ± 1	–	49 ± 1	–	61	52	51.9 ± 1.2	inhibit all three human DNA ligases	48.5 ± 0.1	inhibit all three human DNA ligases	49	–	–
Cc1c(Br)cc(NCC(=O)N/N=C\c2cc([N+](=O)[O-])ccc2O)cc1Br [Compound 67]	0	0	78.3 ± 8.5	78 ± 8	inhibited hLigI; also recorded: inhibit hLigI but not T4 DNA ligase; also recorded: specifically inhibit DNA ligases I and III; also recorded: inhibit DNA ligase 1; also recorded: inhibits both hLigI and hLigIII	0	Ø	88 ± 12	–	78	< 20	–	do not inhibit DNA ligase IV	88.2 ± 11.6	specifically inhibit DNA ligases I and III; also recorded: inhibits DNA ligase III; also recorded: inhibits both hLigI and hLigIII	88	inhibit hLigI but not T4 DNA ligase	–
O=c1[nH]ncc(N/N=C\c2ccc(O)c([N+](=O)[O-])c2)c1Cl [Compound 82]	14 ± 11	13.9 ± 11.4	59.8 ± 1.7	60 ± 2	inhibited hLigI; also recorded: inhibit hLigI but not T4 DNA ligase; also recorded: specific for DNA ligase I; also recorded: inhibit DNA ligase 1; also recorded: only inhibits DNA ligase I; also recorded: inhibits only hLigI	0	Ø	29 ± 7	–	–	–	–	do not inhibit DNA ligase IV	29.2 ± 7.3	–	–	inhibit hLigI but not T4 DNA ligase	–
O=C(Cn1cnc([N+](=O)[O-])n1)N/N=C/c1ccc(O)cc1O [Compound 151]	0	–	25.9 ± 1.2	26 ± 1	specific for DNA ligase I	0	Ø	0	Ø	25	< 20	–	–	–	–	< 20	–	–
O=C1Nc2ccccc2Oc2cc([N+](=O)[O-])cc([N+](=O)[O-])c21 [Compound 180]	–	–	–	–	inhibited hLigI	–	–	–	–	–	–	–	–	–	–	> 40	–	inhibition at 100 µM (hLigI; read-out: % of inhibition @ 100 μM (Helen's data) hLigI): 58%; inhibition at 100 µM (human DNA ligase IV; read-out: % of inhibition @ 100 μM (Helen's data) hLigIV): < 20%
CS(=O)(=O)NNC(=O)C(=O)NNc1ccccc1 [Compound 184]	–	–	–	–	specific for DNA ligase I	–	Ø	–	Ø	–	–	–	–	–	–	–	–	% activity Inhibition LigT4 100 uM (T4 DNA ligase; 100 uM): 0.42 ± 1.4%; In vitro % inhib T4 100 (μM) (T4 DNA ligase; 100 μM): 1 ± 1%; % activity Inhibition hLigI 100 uM (hLigI; 100 uM): 37.7 ± 12.4%; % of inhibition @ 100 μM (Helen's data) hLigI (hLigI; 100 μM): 38%; In vitro % inhib hLigI 100 (μM) (hLigI; 100 μM): 38 ± 12%; % of inhibition @ 100 μM (Helen's data) hLigIV (human DNA ligase IV; 100 μM): NI (NI- no inhibition); In vitro % inhib hLigIV 100 (μM) (human DNA ligase IV; 100 μM): 0%; % of inhibition @ 100 μM (Helen's data) hLigIII (human DNA ligase III; 100 μM): NI (NI- no inhibition); In vitro % inhib hLigIII 100 (μM) (human DNA ligase III; 100 μM): 0%
Nc1nc(S)nc(O)c1/N=C/c1ccccc1 [Compound 189]	3 ± 2	3.2 ± 1.9	68.8 ± 4.9	69 ± 5	inhibited hLigI; also recorded: inhibit hLigI but not T4 DNA ligase; also recorded: inhibits all three human DNA ligases; also recorded: inhibit DNA ligase 1	41 ± 6	–	53 ± 5	–	–	–	> 50	inhibits all three human DNA ligases; also recorded: inhibits DNA ligase IV	52.6 ± 4.8	inhibits all three human DNA ligases; also recorded: inhibits DNA ligase III	–	inhibit hLigI but not T4 DNA ligase	–
COc1ccc(-c2cnc3c(O)nc(O)nc3n2)cc1 [Compound 190]	5 ± 1	5.4 ± 0.74	52.5 ± 6.6	53 ± 7	inhibited hLigI; also recorded: specific for DNA ligase I	0	Ø	0	Ø	–	–	–	–	–	–	–	–	–
Cc1oc(C(=O)O)cc1CSCc1cc(C(=O)O)c(C)o1 [Compound 197]	24 ± 6	24.4 ± 5.8	91 ± 6.9	91 ± 7	inhibited hLigI; also recorded: inhibit all three human DNA ligases	57 ± 3	–	96 ± 4	–	91	57	> 60	inhibit all three human DNA ligases	96.5 ± 3.5	inhibit all three human DNA ligases	97	–	–
